Laboratory results: US10167270B2, “Substituted quinazoline compounds and uses thereof for modulating glucocerebrosidase activity” (Northwestern University, priority 2015, dated 2019)
Entries after “also recorded” stand apart in the source; their conditions may differ. Read-outs that look alike come from different tables or passages of the source.

Tests used:
[1] = biological target: T1, N370S mutant GCase in patient fibroblasts (Homo sapiens (Human), UniProt P04062, N370S); assay: GCase activity in N370S fibroblasts after compound treatment; assay type: cell-based; settings: 3-day treatment
T1 sequence (P04062 40-536 N409S): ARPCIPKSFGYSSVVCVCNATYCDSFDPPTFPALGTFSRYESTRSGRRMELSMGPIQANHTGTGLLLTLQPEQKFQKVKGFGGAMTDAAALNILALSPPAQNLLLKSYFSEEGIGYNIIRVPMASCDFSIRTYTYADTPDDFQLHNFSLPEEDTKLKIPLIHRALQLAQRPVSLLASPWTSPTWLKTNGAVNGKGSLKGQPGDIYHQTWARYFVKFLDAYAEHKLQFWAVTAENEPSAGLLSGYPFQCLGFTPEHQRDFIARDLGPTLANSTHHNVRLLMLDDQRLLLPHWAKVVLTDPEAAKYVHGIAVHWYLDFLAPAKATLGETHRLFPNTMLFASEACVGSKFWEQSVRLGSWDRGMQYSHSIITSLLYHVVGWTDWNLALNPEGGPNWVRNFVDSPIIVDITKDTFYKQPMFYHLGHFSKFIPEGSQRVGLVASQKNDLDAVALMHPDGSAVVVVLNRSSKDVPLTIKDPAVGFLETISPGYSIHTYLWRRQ
Experimental: (§1) The N370S fibroblast cell line was obtained from Coriell, GM00372, cultured in DMEM medium (Life Tech) including 1% v/v L-glutamine 200 mM (Life Tech), 1% v/v pen strep (Life Tech), 10% FBS (Life Tech) at 37° C. and 5% CO2 and treated with different compounds at 0.2 μM and 2 μM. After a 3-day treatment, cells were washed with inhibitor free media 3 times and fed with inhibitor free media for 1 day, followed by 1% Triton X-100 lysis buffer to lyse cells. Protein concentrations were measured with a Bradford kit (Thermo), and the GCase activity was determined at pH 5.5.

α-galactosidase A (GLA) = α-galactosidase A (GLA) (Homo sapiens (Human), UniProt P06280); assay: Enzyme selectivity assay, α-galactosidase A; assay type: biochemical; settings: up to 100 μM
α-galactosidase A (GLA), sequence (P06280 32-429): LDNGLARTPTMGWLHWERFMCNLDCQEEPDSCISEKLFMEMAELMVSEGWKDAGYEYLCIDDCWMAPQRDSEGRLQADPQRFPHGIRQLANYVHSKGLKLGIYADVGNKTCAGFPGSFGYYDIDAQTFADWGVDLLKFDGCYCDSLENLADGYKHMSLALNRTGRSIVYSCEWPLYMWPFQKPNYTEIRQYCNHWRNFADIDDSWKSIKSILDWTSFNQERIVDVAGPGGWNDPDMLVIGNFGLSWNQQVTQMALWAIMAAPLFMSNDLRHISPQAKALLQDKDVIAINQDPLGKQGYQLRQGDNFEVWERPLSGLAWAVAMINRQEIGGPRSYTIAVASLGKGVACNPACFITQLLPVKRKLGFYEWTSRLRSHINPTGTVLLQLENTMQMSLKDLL
Source text: (§2) Louis, Mo.). The recombinant wild-type GCase enzyme velaglucerase alfa ([…] Human Genetic Therapies, Inc.), acid α-glucosidase enzyme alglucosidase alfa (Lumizyme®, Genzyme Corporation), α-galactosidase A enzyme agalsidase beta (Fabrazyme®, Genzyme Corporation) were used in activity assays. […] The acid α-glucosidase and α-galactosidase A enzyme activity assay methods were similar to the GCase enzyme activity assay above with slight modifications.

wild-type GCase [2] = biological target: T2, wild-type GCase (Homo sapiens (Human), UniProt P04062); assay: GCase enzyme activity assay (4MU-β-Glc, no taurocholate); assay type: biochemical
T2 sequence (P04062 40-536): as the sequence (P04062 40-536 N409S) above, with S370N counted along it
Experimental: In previous studies, high concentrations of taurocholate (4-10 mM) were used to improve the signal in GCase enzyme activity assays^16,27,28. […] Here we describe our modifications of the substituents on the quinazoline ring.
4-Methylumbelliferyl β-D-glucopyranoside (4MU-β-Glc), 4-methylumbelliferyl α-D-glucopyranoside,4-methylumbelliferyl α-D-galactopyranoside, and buffer components were purchased from Sigma-Aldrich (St. Louis, Mo.). The recombinant wild-type GCase enzyme velaglucerase alfa (Vpriv®, Shire Human Genetic Therapies, Inc.), acid α-glucosidase enzyme alglucosidase alfa (Lumizyme®, Genzyme Corporation), α-galactosidase A enzyme agalsidase beta (Fabrazyme®, Genzyme Corporation) were used in activity assays. […] A solution of 1 M sodium hydroxide and 1 M glycine (pH 10) was used as the stop solution for all three enzyme activity assays.
The compounds in DMSO solution (0.5 μL/well) were transferred to a black 96-well plate (the final titration started from 100 μM, a 12 or 24-point 2-fold dilution series). […] After 5 min of incubation at room temperature, the enzyme reaction was initiated by the addition of blue substrate (4MU-13-Glc) (33 μL/well). The final concentration of the blue substrate was 1.5 mM. The blue substrate reaction was terminated by the addition of 33 μL/well stop solution (1 M NaOH and 1 M glycine mixture, pH 10) after 30 min of incubation at 37° C. […] The selected compounds were further assayed under pH 5.0 and pH 7.0 to evaluate their selectivity under various pH conditions.

GCase = GCase (Homo sapiens (Human), UniProt P04062); assay: Enzyme kinetic assay (resorufin β-D-glucopyranoside); assay type: biochemical; settings: substrate 30-150 μM
GCase, sequence (P04062 40-536): as the sequence (P04062 40-536 N409S) above, with S370N counted along it
Experimental: We further tested compounds 4 and 11g by measuring GCase activity at various substrate concentrations (30-150 μM) and in the absence or presence of increasing concentrations of GCase inhibitors.
The substrate resorufin β-D-glucopyranoside was diluted to five concentrations, ranging from 30 to 150 μM. Seven concentrations of inhibitors (between 0.5- and 5-fold of IC50 value) and a DMSO control were added to the enzyme solution. The final enzyme concentration was 10 nM to give a linear reaction over 10 min. Enzyme kinetics were measured by the addition of 66 μL of substrate to a 96-well assay plate, followed by 33 μL of enzyme solution (with or without inhibitor) using a dispense module on a Biotek Synergy H1 multi-mode plate reader. The increase in product fluorescence was measured at 1 min intervals for 10 min in the plate reader. The rate of product formation was calculated by converting the fluorescence units to nanomoles of product per minute using a standard curve of the free fluorophore, resorufin.

acid α-glucosidase (GAA) = acid α-glucosidase (GAA) (Homo sapiens (Human), UniProt P10253); assay: Enzyme selectivity assay, acid α-glucosidase; assay type: biochemical; settings: up to 100 μM
Source text: as §2

[3] = biological target: T1, N370S mutant GCase in patient fibroblasts; assay: GCase protein level in N370S fibroblasts by Western blot; assay type: cell-based; settings: 3 days treatment
Experimental: as §1
Proteins were denatured in 20% SDS sample buffer at 100° C. for 10 min; 10% Bis-Tris gel (Life Tech) was used for gels; Trans-Blot Turbo PVDF kit (Bio-Rad) was used for membrane transfer, and Chemidoc MP system (Bio-Rad) was used to analyze the blots.

wild-type GCase [4] = biological target: T2, wild-type GCase; assay: Fluorescence thermal shift analysis; assay type: binding
Source text: Compounds shown to act as pharmacological chaperones for GCase (or other lysosomal enzymes) also stabilize the enzyme against thermal denaturation. A fluorescent thermal shift assay was developed to evaluate the binding affinity of ligands with protein^30. […] The maximum thermal shift of these compounds corresponded to their inhibitory activity at pH 5.0.
A robotic pipeline in the High Throughput Analysis Laboratory (HTAL) was used for protein ligand screening by fluorescence thermal shift (FTS) analysis. The pipeline used a Mosquito robot (TTP Labtech) for protein dispensing and an Echo 550 (Labcyte) to add compounds. Thermal scanning coupled with fluorescence detection was performed on a real-time PCR machine CFX384 (Bio-Rad Laboratories). The assay was run in 384-well PCR plates, using 10 μL citric acid/K2HPO4 buffer (50 mM citric acid, 150 mM K2HPO4, pH 5.0) per well. The assay concentration for protein was 1 μM and that for Sypro Orange (Invitrogen) was 5×. Protein was premixed with Sypro Orange and dispensed to a plate first, and compounds were added. Final concentrations of compounds ranged from 0.5 to 200 μM. Then the plate was sealed with an optical seal, shaken, and centrifuged. The thermal scan was from 10 to 95° C. with a temperature ramp rate of 1.5° C./min. The fluorescence was recorded every 10 sec. Data analysis and report generation were performed using the in-house software excelFTS.

## c1ccc2c(c1)CC(Nc1nc(-c3ccsc3)nc3ccccc13)C2 [Compound 11g, N-(2,3-dihydro-1H-inden-2-yl)-2-(thiophen-3-yl)quinazolin-4-amine]
[1]
  GCase activity in patient cells: increased GCase activity
α-galactosidase A (GLA)
  activity of α-galactosidase A on compound treatment: not significantly changed
wild-type GCase [2]; pH 5.0, mean ± SD, read-out: IC50 pH 5.0
  IC50: 8.9 ± 1.3 nM
wild-type GCase [2]; pH 5.0 vs pH 5.9
  decrease of inhibitory activity at pH 5.0 compared to pH 5.9: only dropped slightly
wild-type GCase [2]; pH 5.9, mean ± SD, read-out: IC50 pH 5.9
  IC50: 5.2 ± 0.6 nM
wild-type GCase [2]; pH 7.0, mean ± SD, read-out: IC50 pH 7.0
  IC50: 6.6 ± 1 nM
GCase
  type of inhibition (Lineweaver-Burk): linear mixed inhibition
Acid α-glucosidase (GAA)
  activity of acid α-glucosidase on compound treatment: not significantly changed
[3]
  concentration of GCase protein: significantly increased the concentration of GCase
wild-type GCase [4]; pH 5.0
  maximum thermal shift: around 11 °C
wild-type GCase [4]; pH 5.0, in words
  stabilization of GCase (melting point change): stabilize wild-type GCase in a dose-dependent manner; also recorded: increased the GCase melting point in a dose-dependent manner
